Measurements published in article PMC9753424 (2022).

Legend:
Experiment in all cases: bio-layer interferometry
[1] = system: MYC-G4 (DNA, G4) TGAGGGTGGGTAGGGTGGGTAA; conditions: PBS (ion concentrations not given), 0.5% DMSO, 0.02% Tween-20, 25 °C sensor hydration
[2] = system: ssDNA oligonucleotide (DNA, single strand) GGCATAGTGCGTGGGCG; conditions: PBS (ion concentrations not given), 0.5% DMSO, 0.02% Tween-20, highest hemin 8 μM
[3] = system: hTELO-G4 (DNA, G4) GGTTAGGGTTAGGGTTAGGGTTAGGGTTAG; conditions: PBS (ion concentrations not given), 0.5% DMSO, 0.02% Tween-20, highest hemin 8 μM
[4] = system: intermolecular hTELO-G4 (DNA, G4) TTAGGGTTAGGGTTAGGG; conditions: PBS (ion concentrations not given), 0.5% DMSO, 0.02% Tween-20, highest hemin 8 μM
[5] = system: double-stranded DNA (DNA, duplex) GGCATAGTGCGTGGGCG/CGCCCACGCACTATGCC; conditions: PBS (ion concentrations not given), 0.5% DMSO, 0.02% Tween-20, highest hemin 8 μM
[6] = system: SPB1-G4 (DNA, G4) GGCGAGGGGCGTGGCCGGC; conditions: PBS (ion concentrations not given), 0.5% DMSO, 0.02% Tween-20, highest hemin 8 μM

SMILES	KD ([1]; hemin 0.5-8 μM)	binding [2]	binding [3]	binding [4]	binding [5]	binding [6]	KD ([1]; PpIX 1.25-20 μM)
C=CC1=C(C)c2cc3[n-]c(cc4[n-]c(cc5nc(cc1n2)C(C)=C5C=C)c(C)c4CCC(=O)O)c(CCC(=O)O)c3C.[Cl-].[Fe+3]	1.52 ± 0.04 µM	no	no	no	no	no	
C=CC1=C(C)c2cc3[nH]c(cc4nc(cc5[nH]c(cc1n2)c(C)c5CCC(=O)O)C(CCC(=O)O)=C4C)c(C)c3C=C							3.04 ± 0.05 µM
